Where two headings read alike, the source gives them in different places.
Biological target: T1, Full-length glucokinase (beta cell isoform) (Homo sapiens, UniProt P35557)
T1 construct: Full-length glucokinase (beta cell isoform) was His-tagged at N-terminus; His tag (N); made in house
T1 sequence (P35557 1-465): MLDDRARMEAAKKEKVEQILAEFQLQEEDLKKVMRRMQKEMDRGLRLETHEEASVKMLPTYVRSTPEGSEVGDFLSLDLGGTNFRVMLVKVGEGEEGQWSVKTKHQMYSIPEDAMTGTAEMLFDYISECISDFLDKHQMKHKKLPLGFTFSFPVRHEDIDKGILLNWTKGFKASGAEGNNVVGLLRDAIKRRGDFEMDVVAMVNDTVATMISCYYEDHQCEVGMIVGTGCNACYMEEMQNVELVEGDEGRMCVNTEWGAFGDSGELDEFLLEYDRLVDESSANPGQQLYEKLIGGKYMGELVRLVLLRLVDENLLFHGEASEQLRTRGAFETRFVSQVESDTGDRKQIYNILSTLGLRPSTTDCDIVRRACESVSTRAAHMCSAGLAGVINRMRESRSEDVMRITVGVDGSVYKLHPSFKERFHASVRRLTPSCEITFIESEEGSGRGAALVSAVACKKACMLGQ
Assay: Glucokinase biochemical assay (PK/LDH-coupled, NADH depletion at 340 nm): % activation, EC50, % max activation
Settings: 5 mM glucose; for EC50: read-out: EC50; for activation at 10 µM: read-out: % Activation at 10 uM; for Emax: read-out: % Max Activation
In short: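 Activation expressed as (Va/Vo−1)×100, where initial rates with and without compound come from NADH depletion at 340 nm over 200–900 s. Enzyme is His-tagged human beta-cell GK, full length, run at room temperature in HEPES buffer with 1 mM ATP and 5 mM glucose. DMSO 1%.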

[1] = 10 uM compound, % Activation=(Va/Vo−1)×100
[2] = compound at 10 uM, 1 mM ATP, room temperature

Row | EC50 (GK activation) | activation at 10 µM [1] | EC50 (1 mM ATP, room temperature) | activation at 10 µM [2] | Emax (fitted maximum activation) | Compound | % Activation at 10 uM [1] | % Max Activation (fitted maximum activation)
1 | – | 15% | – | – | – | Cc1ccc(NC(=O)c2cc(Oc3ccc(C(=O)N(C)C)c(F)c3)c3ccoc3c2)nc1 [Example 342, 4-(4-(Dimethylcarbamoyl)-3-fluorophenoxy)-N-(5-methylpyridin-2-yl)benzofuran-6-carboxamide] | – | –
2 | – | – | > 10000 nM | 78.8% | – | Cn1ccc(NC(=O)c2cc(Oc3ccc(S(C)(=O)=O)cc3)c3c(c2)C(=O)N(C2CC2)C3)n1 [Example 386, 2-Cyclopropyl-N-(1-methyl-1H-pyrazol-3-yl)-7-(4-(methylsulfonyl)-phenoxy)-3-oxoisoindoline-5-carboxamide] | – | –
3 | 1700 nM | 59% | – | – | 69% | CN(C)C(=O)c1ccc(Oc2cc(C(=O)Nc3ccn(C)n3)cc3occc23)cc1F [Example 341, 4-(4-(Dimethylcarbamoyl)-3-fluorophenoxy)-N-(1-methyl-1H-pyrazol-3-yl)benzofuran-6-carboxamide] | – | –
4 | 75 nM | 55.3% | – | – | 88% | Cn1ccc(NC(=O)c2cc(Oc3ccc(C(=O)N4CC[C@@H](F)C4)c(F)c3)c3c(c2)OC(C)(C)C3)n1 [Example 58, 4-[3-Fluoro-4-((R)-3-fluoro-pyrrolidine-1-carbonyl)-phenoxy]-2,2-dimethyl-2,3-dihydro-benzofuran-6-carboxylic acid(1-methyl-1H-pyrazol-3-yl)-amide] | – | –
5 | 203 nM | 156% | – | – | 164% | Cn1ccc(NC(=O)c2cc(Oc3ccc(S(C)(=O)=O)c(F)c3)c3c(c2)OC(C)(C)C3)n1 [Example 114, 4-(3-Fluoro-4-methanesulfonyl-phenoxy)-2,2-dimethyl-2,3-dihydro-benzofuran-6-carboxylic acid (1-methyl-1H-pyrazol-3-yl)-amide] | – | –
6 | – | 4.3% | – | – | – | CC1(C)Cc2c(Oc3ccc(S(C)(=O)=O)cc3)cc(C(=O)Nc3ccc(C(N)=O)cn3)cc2O1 [Example 15, 6-{[4-(4-Methanesulfonyl-phenoxy)-2,2-dimethyl-2,3-dihydro-benzofuran-6-carbonyl]-amino}-nicotinamide] | – | –
7 | 3700 nM | 66.1% | – | – | 66% | Cc1ccc(NC(=O)c2cc(Oc3ccc(S(C)(=O)=O)cc3)c3oc(C)nc3c2)nc1 [Example 369, 2-Methyl-N-(5-methylpyridin-2-yl)-7-[4-(methylsulfonyl)-phenoxy]-1,3-benzoxazole-5-carboxamide] | – | –
8 | – | – | > 10000 nM | 45.2% | – | Cc1ccc(NC(=O)c2cc(Oc3ccc(S(C)(=O)=O)cc3)c3c(c2)C(=O)N(CC(C)C)CC3)nc1 [Example 391, 2-Isobutyl-N-(5-methylpyridin-2-yl)-5-(4-(methylsulfonyl)-phenoxy)-1-oxo-1,2,3,4-tetrahydroisoquinoline-7-carboxamide] | – | –
9 | 2600 nM | 239% | – | – | 265% | Cn1ccc(NC(=O)c2cc(Oc3cc(F)cc(F)c3)c3c(c2)OC(C)(C)C3)n1 [Example 113, 4-(3,5-Difluoro-phenoxy)-2,2-dimethyl-2,3-dihydro-benzofuran-6-carboxylic acid (1-methyl-1H-pyrazol-3-yl)-amide] | – | –
10 | 890 nM | 107% | – | – | 143% | Cn1ccc(NC(=O)c2cc(Oc3cccc(C(=O)N4CCC4)c3)c3c(c2)OC(C)(C)C3)n1 [Example 37, 4-[3-(Azetidine-1-carbonyl)-phenoxy]-2,2-dimethyl-2,3-dihydro-benzofuran-6-carboxylic acid(1-methyl-1H-pyrazol-3-yl)-amide] | – | –
11 | 840 nM | 157% | – | – | 146% | COc1cnc(NC(=O)c2cc(Oc3ccc(S(C)(=O)=O)cc3)c3cc(C)oc3c2)cn1 [Example 263, N-(5-methoxypyrazin-2-yl)-2-methyl-4-(4-(methylsulfonyl)-phenoxy)-benzofuran-6-carboxamide] | – | –
12 | – | 12.7% | – | – | – | Cc1ccc(NC(=O)c2cc(Oc3ccc(C(=O)N(C)C)c(F)c3)c3cc(C)oc3c2)nc1 [Example 273, 4-(4-(Dimethylcarbamoyl)-3-fluorophenoxy)-2-methyl-N-(5-methylpyridin-2-yl)benzofuran-6-carboxamide] | – | –
13 | – | 12% | – | – | – | CC(CN1CCOCC1)Oc1cc(C(=O)Nc2ccn(C)n2)cc2c1CC(C)(C)O2 (centres unmarked) [Example 85, 2,2-Dimethyl-4-(1-methyl-2-morpholin-4-yl-ethoxy)-2,3-dihydro-benzofuran-6-carboxylic acid (1-methyl-1H-pyrazol-3-yl)-amide] | – | –
14 | 8800 nM | 79.7% | – | – | 141% | Cn1ccc(NC(=O)c2cc(Oc3cc(F)ccc3S(C)(=O)=O)c3c(c2)OC(C)(C)C3)n1 [Example 115, 4-(5-Fluoro-2-methanesulfonyl-phenoxy)-2,2-dimethyl-2,3-dihydro-benzofuran-6-carboxylic acid (1-methyl-1H-pyrazol-3-yl)-amide] | – | –
15 | 76 nM | 82.2% | – | – | 107% | CN(C)C(=O)c1ccc(Oc2cc(C(=O)Nc3ccn(C)n3)cc3c2CC(C)(C)O3)cc1Cl [Example 108, 4-(3-Chloro-4-dimethylcarbamoyl-phenoxy)-2,2-dimethyl-2,3-dihydro-benzofuran-6-carboxylic acid (1-methyl-1H-pyrazol-3-yl)-amide] | – | –
16 | 410 nM | 73.7% | – | – | 78% | Cc1ccc(NC(=O)c2cc(Oc3ccc(S(C)(=O)=O)cc3)c3cc(CO)oc3c2)nc1 [Example 316, 2-(Hydroxymethyl)-N-(5-methylpyridin-2-yl)-4-(4-(methylsulfonyl)-phenoxy)benzofuran-6-carboxamide] | – | –
17 | 269 nM | 103% | – | – | 100% | CN(C)C(=O)c1ccc(Oc2cc(C(=O)Nc3ccon3)cc3c2CC(C)(C)O3)cc1F [Example 144, 4-(4-Dimethylcarbamoyl-3-fluoro-phenoxy)-2,2-dimethyl-2,3-dihydro-benzofuran-6-carboxylic acid isoxazol-3-ylamide] | – | –
18 | 420 nM | 90.8% | – | – | 94.5% | COCC1Cc2c(Oc3ccc(C(=O)N(C)C)c(F)c3)cc(C(=O)Nc3ccn(C)n3)cc2O1 (centres unmarked) [Example 205, 4-(4-Dimethylcarbamoyl-3-fluoro-phenoxy)-2-methoxymethyl-2,3-dihydro-benzofuran-6-carboxylic acid (1-methyl-1H-pyrazol-3-yl)-amide] | – | –
19 | 1600 nM | 154% | – | – | 165% | Cn1ccc(NC(=O)c2cc(OCc3nc(-c4ccccn4)no3)c3c(c2)OC(C)(C)C3)n1 [Example 98, 2,2-Dimethyl-4-(3-pyridin-2-yl-[1,2,4]oxadiazol-5-ylmethoxy)-2,3-dihydro-benzofuran-6-carboxylic acid (1-methyl-1H-pyrazol-3-yl)-amide] | – | –

Row | Compound | EC50 (GK activation) | activation at 10 µM [1] | EC50 (1 mM ATP, room temperature) | activation at 10 µM [2] | Emax (fitted maximum activation) | % Activation at 10 uM [1] | % Max Activation (fitted maximum activation)
20 | Cn1ccc(NC(=O)c2cc(Oc3ccc(CO)cc3F)c3c(c2)OC(C)(C)C3)n1 [Example 40, 4-(2-Fluoro-4-hydroxymethyl-phenoxy)-2,2-dimethyl-2,3-dihydro-benzofuran-6-carboxylic acid(1-methyl-1H-pyrazol-3-yl)-amide] | 3600 nM | – | – | – | – | 109% | 150%
